Assays:
[1] = tested on: phenylalkylamine binding site of the L-type calcium channel; assay: Verapamil binding, L calcium channel; conditions: 10 μM, percentage inhibition, N-methyl-[3H]-verapamil 2 nM
Experimental: Binding Investigations in the L Calcium Channel
Phenylalkylamine Binding Site (Verapamil Binding)
The biological material (ion channel particles) was prepared on the basis of the publication of Reynolds, Gould and Snyder (I. J. Reynolds, R. J. Gould and S. H. Snyder (1983) […]. 95, 319-321).
N-methyl-[^3H]-verapamil (2 nM in the assay) was used as radioligand. The radioactivity that is measured in the presence of non-radioactive verapamil (10^−4 M in the assay) is defined as non-specific binding. The material was incubated at 25° C. for 45 minutes. The material was then filtered using a Whatman GF/B filter, followed by washing. The radioactivity remaining on the filter (ion channel binding) was measured using a β-counter.
For this purpose IC50 values are obtained, which can be converted to inhibitor constants (Ki) according to the “Cheng-Prusoff equation” (Y. C. Clieng and W. H. Prusoff (1973) Biochem. Pharmacol. 22, 3099-3108). The IC50 values were obtained by means of the computer program “Figure P” (version 6.0, Biosoft, Cambridge, England). Km values were calculated according to Lineweaver and Burk (H. Lineweaver and D. Burk (1934) J. Am. Chem. Soc. 56, 658-666). The “Ligand” computer program (version 4, Biosoft, England) was used to obtain Ken values.

NA transporter = molecular target: T1, NA transporter (Rattus norvegicus, UniProt Q63380); assay: synaptosomal noradrenaline uptake inhibition (NA uptake inhibition); format: biochemical; conditions: read-out: NA Uptake Inhibition at 1 μM, 1 μM in the assay, synaptosomes from rat hypothalamus
T1 construct: synaptosomes are isolated fresh from rat brains; from tissue; host or cells: rat hypothalamus synaptosomes (P2 fraction)
T1 sequence (Q63380 1-617): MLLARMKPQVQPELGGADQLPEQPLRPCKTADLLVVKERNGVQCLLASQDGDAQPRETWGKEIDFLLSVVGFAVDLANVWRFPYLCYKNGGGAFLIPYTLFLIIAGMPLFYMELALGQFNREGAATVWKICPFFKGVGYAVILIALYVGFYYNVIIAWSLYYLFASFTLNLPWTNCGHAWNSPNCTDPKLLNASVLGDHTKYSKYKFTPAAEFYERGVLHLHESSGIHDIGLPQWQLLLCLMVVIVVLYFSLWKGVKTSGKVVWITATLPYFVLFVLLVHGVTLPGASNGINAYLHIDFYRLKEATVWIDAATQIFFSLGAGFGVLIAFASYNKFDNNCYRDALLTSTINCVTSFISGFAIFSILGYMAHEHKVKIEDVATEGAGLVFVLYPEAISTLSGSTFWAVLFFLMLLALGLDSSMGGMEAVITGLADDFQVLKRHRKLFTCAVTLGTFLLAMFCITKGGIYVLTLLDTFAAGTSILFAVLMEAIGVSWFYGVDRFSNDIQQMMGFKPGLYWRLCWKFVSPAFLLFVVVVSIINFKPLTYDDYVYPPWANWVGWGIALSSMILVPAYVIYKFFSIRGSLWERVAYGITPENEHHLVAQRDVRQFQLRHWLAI
Outline: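 IC50 values converted to Ki via Cheng-Prusoff; Km by Lineweaver-Burk. N=4 independent series, each in triplicate, mean ± SEM.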

[2] = tested on: benzothiazepine binding site of the L-type calcium channel; assay: Diltiazem binding, L calcium channel; design: species or system rat; conditions: 10 μM, percentage inhibition, [3H]-cis-(+)-diltiazem 5 nM, rat cerebral cortex membranes
Outline: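 Rat cerebral cortex membranes incubated with [^3H]-cis-(+)-diltiazem (5 nM) for 20 min at 25° C; nonspecific binding defined with (±)-diltiazem (10^−6 M). Bound ligand collected by GF/B filtration and counted; IC50 values converted to Ki by Cheng-Prusoff.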

[3] = tested on: phenylquinone-induced writhing reaction; assay: phenylquinone-induced writhing test in mice; format: in vivo; conditions: Mus musculus, iv, 10 min, male NMRI mice, 10 mg/kg intravenously, phenylquinone i.p. 10 minutes later
Outline: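 Male NMRI mice (25–30 g, n=10/group) received test substance i.v. at 10 mg/kg, then 0.02% phenylquinone i.p. 10 min later. Writhing reactions were counted 5–20 min after phenylquinone; % inhibition is relative to saline-treated controls.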

[4] = tested on: binding site 2 of the sodium channel; assay: BTX binding, sodium channel; conditions: 10 μM, percentage inhibition, [3H]-batrachotoxin A20 α-benzoate 10 nM, rat cerebral cortex synaptosomes
Outline: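 Rat cerebral cortex synaptosomes incubated with 10 nM [^3H]-batrachotoxin A20 α-benzoate at 37° C for 120 min; non-specific binding defined with 0.3 mM veratridine. IC50 values converted to Ki via Cheng-Prusoff; means±SEM of 3 independent series run in triplicate.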

Row | SMILES | Verapamil Binding at 10 μM [1] | inhibition at 1 µM (NA transporter) | Diltiazem Binding at 10 μM [2] | inhibition in vivo at 10 mg/kg [3] | BTX Binding at 10 μM [4] | melting point
1 | Cc1ccc(C2(O)CCCCC2C(c2ccccc2)N(C)C)cc1.Cl (centres unmarked) [Example 8, 2-(dimethylaminophenylmethyl)-1-p-tolylcyclohexanol, hydrochloride] | 56% | 50% | 68% | 81% | 88% | 168 to 169 °C
2 | CN(C)c1ccc(C2(O)CCCCC2C(c2ccccc2)N(C)C)cc1.Cl (centres unmarked) [Example 10, 1-(4-dimethylaminophenyl)-2-[dimethylaminophenylmethyl]cyclohexanol, hydrochloride] | 61% | 48% | 69% | 97% | 88% | –
3 | CN(C)C(c1ccccc1)C1CCCCC1(O)c1cccc2c1OCO2.Cl (centres unmarked) [Example 11, 1-benzo[1,3]dioxol-4-yl-2-(dimethylaminophenylmethyl)cyclohexanol, hydrochloride] | 61% | 54% | 85% | 99% | 79% | –
4 | CN(C)C(c1ccccc1)C1CCCCC1(O)Cc1ccccc1.Cl (centres unmarked) [Example 14, 1-benzyl-2-(dimethylaminophenylmethyl)cyclohexanol, hydrochloride] | – | 100% | 88% | 70% | 89% | 223 to 225 °C
5 | CN(C)C(c1ccccc1)C1CCCCC1(O)c1ccc(F)c(C(F)(F)F)c1.Cl (centres unmarked) [Example 15, 2-(dimethylaminophenylmethyl)-1-(4-fluoro-3-trifluoromethylphenyl)cyclohexanol, hydrochloride] | 87% | 44% | 97% | 73% | 94% | 234 to 237 °C
6 | CN(C)C(c1ccccc1)C1CCCCC1(O)Cc1ccc(OC(F)(F)F)cc1.Cl (centres unmarked) [Example 16, 2-(dimethylaminophenylmethyl)-1-(4-trifluoromethoxybenzyl)cyclohexanol, hydrochloride] | 91% | 89% | 100% | 75% | 98% | –
7 | CN(C)C(c1ccccc1)C1CCCCC1(O)c1ccoc1.Cl (centres unmarked) [Example 17, 2-(dimethylaminophenylmethyl)-1-furan-3-ylcyclohexanol, hydrochloride] | 72% | 57% | 54% | 100% | 70% | –
8 | CCCCC1(O)CCCCC1C(c1ccccc1)N(C)C.Cl (centres unmarked) [Example 18, 1-butyl-2-(dimethylaminophenylmethyl)cyclohexanol, hydrochloride] | 75% | 84% | 81% | 100% | 95% | –
9 | CN(C)C(c1ccccc1)C1CCCCC1(O)c1ccc2ccccc2c1.Cl (centres unmarked) [Example 21, 2-(dimethylaminophenylmethyl)-1-naphthalene-2-ylcyclohexanol, hydrochloride] | 71% | 17% | 85% | 97% | 94% | –
10 | COc1cccc(CC2(O)CCCCC2C(c2ccc(C(F)(F)F)cc2)N(C)C)c1.Cl (centres unmarked) [Example 22, 2-[dimethylamino-(4-trifluoromethylphenyl)methyl]-1-(3-methoxybenzyl)cyclohexanol, hydrochloride] | 80% | 91% | 72% | 68% | 98% | –
11 | CN(C)C(c1ccccc1)C1CCCCC1(O)Cc1ccc(C(C)(C)C)cc1.Cl (centres unmarked) [Example 28, 1-(4-tert.-butylbenzyl)-2-(dimethylaminophenylmethyl)cyclohexanol, hydrochloride] | – | 63% | 89% | 100% | 100% | 227 to 229 °C
12 | CN(C)C(c1ccccc1)C1CCCCC1(O)Cc1cccc(F)c1.Cl (centres unmarked) [Example 29, 2-(dimethylaminophenylmethyl)-1-(3-fluorobenzyl)cyclohexanol, hydrochloride] | – | 96% | 72% | 96% | 88% | 146 to 147 °C

— US6410790B1, “3-amin3-arylpropan-1-ol compounds, their preparation and use” (priority 1999, dated 2002)
